Legend:
TRKA kinase = TRKA kinase (Homo sapiens (Human), UniProt P04629); test: Assay of small molecular compounds for inhibiting the activity of TRKA kinase (LANCE TR-FRET); format: biochemical
Outline: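 LANCE TR-FRET with ULight-TK peptide; compounds pre-incubated 5 min with TRKA (2× solution 2 nM), then substrate/ATP added (4× mix: 400 nM peptide, 40 μM ATP). Reaction 60 min at room temperature in dark, 1% DMSO final; stopped, detection developed 60 min, signal read.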

VEGFR-2 kinase = VEGFR-2 kinase (Homo sapiens (Human), UniProt P35968); test: Assay of small molecular compounds for inhibiting the activity of VEGFR-2 kinase (LANCE TR-FRET); format: biochemical; conditions: read-out: VEGFR2 IC50
Sequence of VEGFR-2 kinase (P35968 20-1356): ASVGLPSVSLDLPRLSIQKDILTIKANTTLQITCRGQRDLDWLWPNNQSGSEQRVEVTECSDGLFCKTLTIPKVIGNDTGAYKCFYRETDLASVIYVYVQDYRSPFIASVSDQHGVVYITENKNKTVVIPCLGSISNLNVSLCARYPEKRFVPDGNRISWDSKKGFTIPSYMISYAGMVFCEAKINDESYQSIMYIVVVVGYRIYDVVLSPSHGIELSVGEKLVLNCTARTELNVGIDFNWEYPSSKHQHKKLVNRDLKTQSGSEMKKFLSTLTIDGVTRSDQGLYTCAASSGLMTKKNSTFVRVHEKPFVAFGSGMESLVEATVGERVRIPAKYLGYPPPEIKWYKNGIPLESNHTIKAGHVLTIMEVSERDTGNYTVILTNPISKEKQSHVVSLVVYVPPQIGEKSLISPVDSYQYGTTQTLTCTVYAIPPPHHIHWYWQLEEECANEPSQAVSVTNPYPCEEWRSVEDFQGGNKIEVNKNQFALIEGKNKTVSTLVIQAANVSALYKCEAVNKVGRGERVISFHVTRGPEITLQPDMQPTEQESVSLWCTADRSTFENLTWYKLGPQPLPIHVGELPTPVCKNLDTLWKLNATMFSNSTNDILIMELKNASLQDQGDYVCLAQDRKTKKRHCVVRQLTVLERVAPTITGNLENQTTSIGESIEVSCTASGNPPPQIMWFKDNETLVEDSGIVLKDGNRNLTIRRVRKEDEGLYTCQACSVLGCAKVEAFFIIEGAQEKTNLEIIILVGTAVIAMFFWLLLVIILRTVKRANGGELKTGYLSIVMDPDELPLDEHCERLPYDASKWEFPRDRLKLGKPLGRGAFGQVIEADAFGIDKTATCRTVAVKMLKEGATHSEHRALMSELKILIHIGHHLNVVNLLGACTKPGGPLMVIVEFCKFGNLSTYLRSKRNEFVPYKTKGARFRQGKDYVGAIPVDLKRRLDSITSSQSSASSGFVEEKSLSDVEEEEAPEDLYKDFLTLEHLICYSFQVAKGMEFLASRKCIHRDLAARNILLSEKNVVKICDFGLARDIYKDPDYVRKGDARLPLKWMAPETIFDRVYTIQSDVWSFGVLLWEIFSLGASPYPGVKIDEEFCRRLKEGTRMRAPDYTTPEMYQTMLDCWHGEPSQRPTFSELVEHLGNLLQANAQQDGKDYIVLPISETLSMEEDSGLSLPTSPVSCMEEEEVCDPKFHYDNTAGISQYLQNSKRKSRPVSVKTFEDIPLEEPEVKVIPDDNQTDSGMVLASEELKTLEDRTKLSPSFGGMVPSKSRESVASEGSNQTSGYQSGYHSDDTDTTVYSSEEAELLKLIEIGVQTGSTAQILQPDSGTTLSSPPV
Outline: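 LANCE TR-FRET with human VEGFR-2 (2× stock 0.5 nM) preincubated 30 min with compound (final 2500 to 0.042 nM, 11-point 3-fold), then ULight-JAK-1 (Tyr1023) peptide/ATP added (4× stocks 200 nM/40 μM). Reaction 60 min room temperature, 4% DMSO; IC50 from inhibition-rate curve.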

Ba/F3-AXL cells = test: Assay for inhibiting the proliferation of Ba/F3-AXL cells (CCK-8); format: cell-based; conditions: 72 hours of incubation, medium with 100 ng/mL hGas6, CCK-8
Description: The values were then imported into Graphpad Prism 5 software for curve fitting, and IC50 was calculated.

Ba/F3 LMNA-NTRK1 cells = test: Assay for inhibiting the proliferation of Ba/F3 LMNA-NTRK1 cells (CCK-8); format: cell-based; conditions: Mus musculus, BaF3
Outline: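 Cells were seeded and cultured overnight, then treated with graded compound concentrations (final DMSO 0.25%) for 72 h. CCK-8 was added for 1–2 h at 37 °C and OD450 read. Survival was normalised to untreated and cell-free blank wells, and IC50 was fitted.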

Sequence of TRKA kinase (P04629 33-796): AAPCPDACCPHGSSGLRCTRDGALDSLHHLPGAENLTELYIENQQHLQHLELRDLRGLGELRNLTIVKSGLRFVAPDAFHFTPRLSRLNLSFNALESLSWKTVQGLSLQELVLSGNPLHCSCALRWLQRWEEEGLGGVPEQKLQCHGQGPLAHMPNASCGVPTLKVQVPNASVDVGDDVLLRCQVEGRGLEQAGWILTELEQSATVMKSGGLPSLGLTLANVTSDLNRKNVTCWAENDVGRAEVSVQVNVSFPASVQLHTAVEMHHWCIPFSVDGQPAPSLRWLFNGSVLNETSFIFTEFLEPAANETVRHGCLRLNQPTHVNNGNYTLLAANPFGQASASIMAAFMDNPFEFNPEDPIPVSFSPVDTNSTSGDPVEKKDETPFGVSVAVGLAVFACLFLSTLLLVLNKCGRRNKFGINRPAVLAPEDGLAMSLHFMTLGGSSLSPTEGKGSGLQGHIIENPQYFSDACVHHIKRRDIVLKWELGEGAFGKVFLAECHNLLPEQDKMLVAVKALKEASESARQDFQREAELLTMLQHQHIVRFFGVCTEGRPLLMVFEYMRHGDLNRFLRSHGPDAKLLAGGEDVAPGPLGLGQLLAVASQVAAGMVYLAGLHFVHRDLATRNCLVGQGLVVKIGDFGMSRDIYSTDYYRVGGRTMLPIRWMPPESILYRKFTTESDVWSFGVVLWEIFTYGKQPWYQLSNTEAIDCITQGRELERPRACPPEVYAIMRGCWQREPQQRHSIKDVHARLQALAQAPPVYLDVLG

## O=C(Nc1ccc(Oc2ncnc3cc(OCCCN4CCOCC4)c4c(c23)OCCO4)c(F)c1)c1cccn(-c2ccc(F)cc2)c1=O [Example 4, N-(3-fluoro-4-((5-(3-morpholinopropoxy)-2,3-dihydro-[1,4]dioxino[2,3-f]quinazolin-10-yl)oxy)phenyl)-1-(4-fluorophenyl)-2-oxo-1,2-dihydropyridine-3-carboxamide]
TRKA kinase
  IC50: < 50 nM
VEGFR-2 kinase
  IC50: ≤ 50 nM
Ba/F3-AXL cells
  IC50: < 50 nM

## COc1ccn(-c2ccc(F)cc2)c(=O)c1C(=O)Nc1ccc(Oc2ncnc3cc(OCCCN4CCOCC4)c4c(c23)OCCO4)c(F)c1 [Example 5, N-(3-fluoro-4-((5-(3-morpholinopropoxy)-2,3-dihydro-[1,4]dioxino[2,3-f]quinazolin-10-yl)oxy)phenyl)-1-(4-fluorophenyl)-4-methoxy-2-oxo-1,2-dihydropyridine-3-carboxamide]
TRKA kinase
  IC50: < 50 nM
VEGFR-2 kinase
  IC50: 50 to 500 nM
Ba/F3-AXL cells
  IC50: < 50 nM

## COc1cc2nccc(Oc3ccc(NC(=O)c4cn(CCCO)c(=O)n(-c5ccc(F)cc5)c4=O)cc3F)c2c2c1OCCO2 [Example 99, N-(3-fluoro-4-((5-methoxy-2,3-dihydro-[1,4]dioxino[2,3-f]quinolin-10-yl)oxy)phenyl)-3-(4-fluorophenyl)-1-(3-hydroxypropyl)-2,4-dioxo-1,2,3,4-tetrahydropyrimidine-5-carboxamide]
TRKA kinase
  IC50: 50 to 500 nM
VEGFR-2 kinase
  IC50: 500 to 5000 nM
Ba/F3-AXL cells
  IC50: < 50 nM

## C=CCn1cc(C(=O)Nc2ccc(Oc3ccnc4cc(OC)c5c(c34)OCCO5)c(F)c2)c(=O)n(-c2ccc(F)cc2)c1=O [Example 100, N-(3-fluoro-4-((5-methoxy-2,3-dihydro-[1,4]dioxino[2,3-f]quinolin-10-yl)oxy)phenyl)-3-(4-fluorophenyl)-1-allyl-2,4-dioxo-1,2,3,4-tetrahydropyrimidine-5-carboxamide]
TRKA kinase
  IC50: 50 to 500 nM
VEGFR-2 kinase
  IC50: 500 to 5000 nM
Ba/F3-AXL cells
  IC50: < 50 nM

## COc1cc2nccc(Oc3ccc(NC(=O)c4cn(CCF)c(=O)n(-c5ccc(F)cc5)c4=O)cc3F)c2c2c1OCCO2 [Example 101, N-(3-fluoro-4-((5-methoxy-2,3-dihydro-[1,4]dioxino[2,3-f]quinolin-10-yl)oxy)phenyl)-3-(4-fluorophenyl)-1-(2-fluoroethyl)-2,4-dioxo-1,2,3,4-tetrahydropyrimidine-5-carboxamide]
TRKA kinase
  IC50: 50 to 500 nM
VEGFR-2 kinase
  IC50: 500 to 5000 nM
Ba/F3-AXL cells
  IC50: < 50 nM

## CC(C)n1cc(C(=O)Nc2ccc(Oc3ccnc4cc(OCC5(N)CC5)c5c(c34)OCCO5)c(F)c2)c(=O)n(-c2ccc(F)cc2)c1=O [Example 106, N-(3-fluoro-4-((5-((1-aminocyclopropyl)methoxy)-2,3-dihydro-[1,4]dioxino[2,3-f]quinolin-1 0-yl)oxy)phenyl)-3-(4-fluorophenyl)-1-isopropyl-2,4-dioxo-1,2,3,4-tetrahydropyrimidine-5-carboxamide]
TRKA kinase
  IC50: 50 to 500 nM
VEGFR-2 kinase
  IC50: > 5000 nM
Ba/F3-AXL cells
  IC50: < 50 nM

## CCOc1ccn(-c2cccc(F)c2)c(=O)c1C(=O)Nc1ccc(Oc2ccnc3cc(OC)c4c(c23)OCCO4)c(F)c1 [Example 114, N-(3-fluoro-4-((5-methoxy-2,3-dihydro-[1,4]dioxino[2,3-f]quinolin-10-yl)oxy)phenyl)-2-oxo-4-ethoxy-1-(3-fluorophenyl)-1,2-dihydropyridin-3-carboxamide]
TRKA kinase
  IC50: 50 to 500 nM
VEGFR-2 kinase
  IC50: 50 to 500 nM
Ba/F3-AXL cells
  IC50: < 50 nM

## CCn1cc(C(=O)Nc2ccc(Oc3ccnc4cc(OC)c5c(c34)OCCO5)cc2)c(=O)n(-c2ccc(F)cc2)c1=O [Example 146, N-(4-((5-methoxy-2,3-dihydro-[1,4]dioxino[2,3-f]quinolin-10-yl)oxy)phenyl)-3-(4-fluorophenyl)-1-ethyl-2,4-dioxo-1,2,3,4-tetrahydropyrimidine-5-carboxamide]
TRKA kinase
  IC50: < 50 nM
VEGFR-2 kinase
  IC50: > 5000 nM
Ba/F3 LMNA-NTRK1 cells
  IC50: < 50 nM

## COCCOc1cc2nccc(Oc3ccc(NC(=O)c4cn(C)c(=O)n(-c5ccc(F)cc5)c4=O)cc3)c2c2c1OCCO2 [Example 147, N-(4-((5-(2-methoxyethoxy)-2,3-dihydro-[1,4]dioxino[2,3-f]quinolin-10-yl)oxy)phenyl)-3-(4-fluorophenyl)-1-methyl-2,4-dioxo-1,2,3,4-tetrahydropyrimidine-5-carboxamide]
TRKA kinase
  IC50: < 50 nM
VEGFR-2 kinase
  IC50: 50 to 500 nM
Ba/F3 LMNA-NTRK1 cells
  IC50: < 50 nM

## CCn1cc(C(=O)Nc2ccc(Oc3ccnc4cc(OCCOC)c5c(c34)OCCO5)cc2)c(=O)n(-c2ccc(F)cc2)c1=O [Example 148, N-(4-((5-(2-methoxyethoxy)-2,3-dihydro-[1,4]dioxino[2,3-f]quinolin-10-yl)oxy)phenyl)-3-(4-fluorophenyl)-1-ethyl-2,4-dioxo-1,2,3,4-tetrahydropyrimidine-5-carboxamide]
TRKA kinase
  IC50: < 50 nM
VEGFR-2 kinase
  IC50: 500 to 5000 nM
Ba/F3 LMNA-NTRK1 cells
  IC50: < 50 nM

## Cn1cc(C(=O)Nc2ccc(Oc3ccnc4cc(OCC(C)(C)O)c5c(c34)OCCO5)cc2)c(=O)n(-c2ccc(F)cc2)c1=O [Example 149, N-(4-((5-(2-hydroxy-2-methylpropoxy)-2,3-dihydro-[1,4]dioxino[2,3-f]quinolin-10-yl)oxy)phenyl)-3-(4-fluorophenyl)-1-methyl-2,4-dioxo-1,2,3,4-tetrahydropyrimidine-5-carboxamide]
TRKA kinase
  IC50: < 50 nM
VEGFR-2 kinase
  IC50: 500 to 5000 nM
Ba/F3 LMNA-NTRK1 cells
  IC50: < 50 nM

## CCn1cc(C(=O)Nc2ccc(Oc3ccnc4cc(OCC(C)(C)O)c5c(c34)OCCO5)cc2)c(=O)n(-c2ccc(F)cc2)c1=O [Example 150, N-(4-((5-(2-hydroxy-2-methylpropoxy)-2,3-dihydro-[1,4]dioxino[2,3-f]quinolin-10-yl)oxy)phenyl)-3-(4-fluorophenyl)-1-ethyl-2,4-dioxo-1,2,3,4-tetrahydropyrimidine-5-carboxamide]
TRKA kinase
  IC50: < 50 nM
VEGFR-2 kinase
  IC50: 500 to 5000 nM
Ba/F3 LMNA-NTRK1 cells
  IC50: < 50 nM

## COc1cc2nccc(Oc3ccc(NC(=O)c4cn(C)c(=O)n(-c5ccc(F)cc5)c4=O)c(F)c3)c2c2c1OCCO2 [Example 153, N-(2-fluoro-4-((5-methoxy-2,3-dihydro-[1,4]dioxino[2,3-f]quinolin-10-yl)oxy)phenyl)-3-(4-fluorophenyl)-1-methyl-2,4-dioxo-1,2,3,4-tetrahydropyrimidine-5-carboxamide]
TRKA kinase
  IC50: < 50 nM
VEGFR-2 kinase
  IC50: 500 to 5000 nM
Ba/F3 LMNA-NTRK1 cells
  IC50: < 50 nM

## COCCOc1cc2nccc(Oc3ccc(NC(=O)c4cn(C)c(=O)n(-c5ccc(F)cc5)c4=O)c(F)c3)c2c2c1OCCO2 [Example 155, N-(2-fluoro-4-((5-(2-methoxyethoxy)-2,3-dihydro-[1,4]dioxino[2,3-f]quinolin-10-yl)oxy)phenyl)-3-(4-fluorophenyl)-1-methyl-2,4-dioxo-1,2,3,4-tetrahydropyrimidine-5-carboxamide]
TRKA kinase
  IC50: < 50 nM
VEGFR-2 kinase
  IC50: 500 to 5000 nM
Ba/F3 LMNA-NTRK1 cells
  IC50: < 50 nM

## CCn1cc(C(=O)Nc2ccc(Oc3ccnc4cc(OCCOC)c5c(c34)OCCO5)cc2F)c(=O)n(-c2ccc(F)cc2)c1=O [Example 156, N-(2-fluoro-4-((5-(2-methoxyethoxy)-2,3-dihydro-[1,4]dioxino[2,3-f]quinolin-10-yl)oxy)phenyl)-3-(4-fluorophenyl)-1-ethyl-2,4-dioxo-1,2,3,4-tetrahydropyrimidine-5-carboxamide]
TRKA kinase
  IC50: < 50 nM
VEGFR-2 kinase
  IC50: 500 to 5000 nM
Ba/F3 LMNA-NTRK1 cells
  IC50: < 50 nM

## Cn1cc(C(=O)Nc2ccc(Oc3ccnc4ccc5c(c34)OCCO5)cc2F)c(=O)n(-c2ccc(F)cc2)c1=O [Example 162, N-(4-((2,3-dihydro-[1,4]dioxino[2,3-f]quinolin-10-yl)oxy)-2-fluorophenyl)-3-(4-fluorophenyl)-1-methyl-2,4-dioxo-1,2,3,4-tetrahydropyrimidine-5-carboxamide]
TRKA kinase
  IC50: < 50 nM
VEGFR-2 kinase
  IC50: 500 to 5000 nM
Ba/F3 LMNA-NTRK1 cells
  IC50: < 50 nM

## COc1cc2nccc(Oc3cc(C)c(NC(=O)c4cn(C)c(=O)n(-c5ccc(F)cc5)c4=O)cc3F)c2c2c1OCCO2 [Example 177, N-(5-fluoro-4-((5-methoxy-2,3-dihydro-[1,4]dioxino[2,3-f]quinolin-10-yl)oxy)-2-methylphenyl)-3-(4-fluorophenyl)-1-methyl-2,4-dioxo-1,2,3,4-tetrahydropyrimidine-5-carboxamide]
TRKA kinase
  IC50: < 50 nM
VEGFR-2 kinase
  IC50: 500 to 5000 nM
Ba/F3 LMNA-NTRK1 cells
  IC50: < 50 nM

## COCCOc1cc2nccc(Oc3cc(C)c(NC(=O)c4cn(C)c(=O)n(-c5ccc(F)cc5)c4=O)cc3F)c2c2c1OCCO2 [Example 179, N-(5-fluoro-4-((5-(2-methoxyethoxy)-2,3-dihydro-[1,4]dioxino[2,3-f]quinolin-10-yl)oxy)-2-methylphenyl)-3-(4-fluorophenyl)-1-methyl-2,4-dioxo-1,2,3,4-tetrahydropyrimidine-5-carboxamide]
TRKA kinase
  IC50: < 50 nM
VEGFR-2 kinase
  IC50: 500 to 5000 nM
Ba/F3 LMNA-NTRK1 cells
  IC50: < 50 nM

## CCn1cc(C(=O)Nc2cc(F)c(Oc3ccnc4cc(OCCOC)c5c(c34)OCCO5)cc2C)c(=O)n(-c2ccc(F)cc2)c1=O [Example 180, N-(5-fluoro-4-((5-(2-methoxyethoxy)-2,3-dihydro-[1,4]dioxino[2,3-f]quinolin-10-yl)oxy)-2-methylphenyl)-3-(4-fluorophenyl)-1-ethyl-2,4-dioxo-1,2,3,4-tetrahydropyrimidine-5-carboxamide]
TRKA kinase
  IC50: < 50 nM
VEGFR-2 kinase
  IC50: 500 to 5000 nM
Ba/F3 LMNA-NTRK1 cells
  IC50: < 50 nM
